± gives the standard deviation of the averaged measurements.
Tests used:
Experiment in all cases: level (log10 ratio to DMSO vehicle control); higher = higher biomarker level / cell amount than vehicle control
Conditions in all cases: in DMSO
[1] = compound: COC(=O)C(F)(F)C(F)(F)OC(F)(C(F)(F)F)C(F)(F)OC(F)=C(F)F [Methyl perfluoro(3-(1-ethenyloxypropan-2-yloxy)propanoate)]
Description: (§1)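 BioMAP Diversity Plus panel of 12 human primary cell co-culture systems (3C, 4H, LPS, SAg, BT, BF4T, BE3C, CASM3C, HDF3CGF, KF3CT, MyoF, Mphg). Compounds were added 1 h before stimulation and left for 24 h (MyoF 48 h; BT 72 h for soluble read-outs or 6 d for IgG). Biomarkers were read by ELISA, cytotoxicity by SRB, PBMC viability and proliferation by Alamar Blue. Each well value was divided by the mean of 8 DMSO control wells on the same plate and log10 transformed; duplicate blinded samples were tested at 4 concentrations.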

[2] = compound: FC(F)(F)C(F)(F)CNCC(F)(F)C(F)(F)F [Bis(1H,1H-perfluoropropyl)amine]
Description: as §1

[3] = compound: O=C(O)C=CC(F)(C(F)(F)F)C(F)(F)F [3-(Perfluoroisopropyl)-2-propenoic acid]
Description: as §1

[4] = compound: O=S(=O)(O)C(F)(F)C(F)(F)C(F)(F)C(F)(F)C(F)(F)C(F)(F)C(F)(F)C(F)(F)C(F)(F)C(F)(F)F [Sodium perfluorodecanesulfonate]
Description: as §1

[5] = compound: O=S(=O)(O)CCC(F)(F)C(F)(F)C(F)(F)C(F)(F)C(F)(F)C(F)(F)F [6:2 Fluorotelomer sulfonic acid]
Description: as §1

Hexafluoroamylene glycol = compound: OCC(F)(F)C(F)(F)C(F)(F)CO [Hexafluoroamylene glycol]
Description: as §1

Row | Test System | level (log10) ([1]; 6700 nM) | level (log10) ([1]; 20000 nM) | level (log10) ([2]; 6700 nM) | level (log10) ([2]; 20000 nM) | level (log10) ([2]; 60000 nM) | level (log10) ([3]; 6700 nM) | level (log10) ([3]; 20000 nM) | level (log10) ([3]; 60000 nM) | level (log10) ([4]; 1500 nM) | level (log10) ([4]; 4400 nM) | level (log10) ([4]; 13000 nM) | level (log10) ([4]; 40000 nM) | level (log10) ([5]; 6700 nM) | level (log10) ([5]; 20000 nM) | level (log10) ([5]; 60000 nM) | level (log10) (Hexafluoroamylene glycol; 6700 nM) | level (log10) (Hexafluoroamylene glycol; 20000 nM) | level (log10) (Hexafluoroamylene glycol; 60000 nM)
1 | BF4T:SRB | -0.005 ± 0.016 | 0.0035 ± 0.026 | -0.004 ± 0.0071 | -0.0065 ± 0.0064 | 0.0005 ± 0.0078 | -0.008 ± 0.011 | -0.008 ± 0.0099 | 0.006 ± 0.018 | 0.004 ± 0.0071 | -0.0055 ± 0.005 | 0 ± 0.0057 | 0.006 ± 0.016 | 0.0005 ± 0.00071 | -0.003 ± 0.0042 | -0.003 ± 0.0057 | 0.0025 ± 0.018 | 0.002 ± 0.0085 | 0 ± 0.0057
2 | BT:Secreted IgG | 0.006 ± 0.0014 | 0.007 ± 0.03 | 0.0095 ± 0.0021 | 0.001 ± 0.023 | 0.0185 ± 0.00071 | -0.041 ± 0.048 | -0.0035 ± 0.016 | -0.0205 ± 0.013 | -0.026 ± 0.038 | -0.0155 ± 0.022 | -0.0275 ± 0.046 | -0.028 ± 0.028 | 0.0005 ± 0.054 | -0.048 ± 0.031 | -0.081 ± 0.048 | 0.022 ± 0.048 | 0.0275 ± 0.037 | 0.023 ± 0.017
3 | BF4T:tPA | -0.053 ± 0.025 | -0.046 ± 0.0028 | -0.062 ± 0.035 | -0.054 ± 0.023 | -0.0335 ± 0.0035 | -0.004 ± 0.037 | -0.0055 ± 0.022 | 0.03 ± 0.024 | 0.01 ± 0.0071 | 0.0175 ± 0.059 | 0.075 ± 0.018 | 0.068 ± 0.016 | -0.008 ± 0.027 | -0.036 ± 0.028 | -0.0355 ± 0.036 | -0.017 ± 0.021 | -0.0015 ± 0.0092 | 0.012 ± 0.038
4 | SAg:CD62E/E-Selectin | -0.028 ± 0.0071 | -0.0615 ± 0.032 | 0.001 ± 0.013 | -0.0075 ± 0.016 | 0.01 ± 0.031 | 0 ± 0.011 | 0.0045 ± 0.013 | -0.006 ± 0.0042 | -0.0105 ± 0.0064 | 0.026 ± 0.0085 | 0.0755 ± 0.04 | 0.138 ± 0.036 | -0.008 ± 0.0057 | -0.007 ± 0.013 | 0.038 ± 0.013 | -0.0415 ± 0.039 | -0.0015 ± 0.0035 | -0.0135 ± 0.00071
5 | BT:sIL-17A | 0.033 ± 0.018 | 0.061 ± 0.17 | -0.0465 ± 0.067 | -0.075 ± 0.13 | -0.069 ± 0.25 | -0.01 ± 0.047 | 0.024 ± 0.14 | -0.124 ± 0.13 | 0.0435 ± 0.16 | 0.057 ± 0.17 | 0.052 ± 0.3 | -0.0495 ± 0.11 | -0.135 ± 0.05 | -0.005 ± 0.081 | -0.126 ± 0.21 | -0.089 ± 0.0014 | -0.0745 ± 0.0064 | 0.0015 ± 0.05
6 | SAg:PBMC Cytotoxicity | -0.0115 ± 0.025 | 0.028 ± 0.044 | 0.01 ± 0.013 | -0.011 ± 0.0028 | -0.0055 ± 0.037 | -0.0035 ± 0.0078 | 0.0015 ± 0.0035 | -0.005 ± 0.017 | 0.008 ± 0.027 | -0.002 ± 0.0071 | -0.037 ± 0.0028 | 0.017 ± 0.0071 | 0.0105 ± 0.00071 | 0 ± 0.0071 | 0.0305 ± 0.029 | 0.0135 ± 0.00071 | 0.008 ± 0.014 | 0.005 ± 0.03
7 | BF4T:MMP-1 | 0.0055 ± 0.019 | 0.0095 ± 0.0021 | -0.009 ± 0.0071 | -0.0005 ± 0.00071 | 0.01 ± 0.011 | -0.0055 ± 0.012 | -0.0055 ± 0.0035 | 0.017 ± 0.03 | 0.009 ± 0.013 | -0.0095 ± 0.0078 | 0.001 ± 0.0014 | 0.0245 ± 0.005 | -0.0085 ± 0.00071 | -0.0125 ± 0.0078 | 0.0065 ± 0.013 | -0.0105 ± 0.005 | -0.007 ± 0.0014 | 0 ± 0.0085
8 | BF4T:CCL26/Eotaxin-3 | -0.007 | -0.069 ± 0.014 | -0.0275 ± 0.026 | -0.0245 ± 0.0021 | -0.0055 ± 0.053 | -0.0085 ± 0.057 | -0.005 ± 0.013 | 0.0165 ± 0.029 | -0.0815 ± 0.026 | -0.131 ± 0.0078 | -0.23 ± 0.066 | -0.298 ± 0.013 | 0.001 ± 0.018 | -0.0535 ± 0.011 | -0.08 ± 0.078 | 0.003 ± 0.051 | 0.002 ± 0.0071 | 0.0395 ± 0.042
9 | BE3C:CXCL8/IL-8 | 0.0495 ± 0.0021 | 0.09 ± 0.013 | -0.041 ± 0.073 | -0.0325 ± 0.036 | -0.008 ± 0.03 | -0.0015 ± 0.035 | 0.003 ± 0.0057 | 0.0545 ± 0.059 | 0.0135 ± 0.0035 | 0.0345 ± 0.0021 | 0.083 ± 0.021 | 0.0225 ± 0.037 | 0.021 ± 0.031 | -0.001 ± 0.021 | 0 ± 0.021 | -0.001 ± 0.031 | -0.003 ± 0.025 | 0.013 ± 0.034
10 | BE3C:CD54/ICAM-1 | -0.0205 ± 0.005 | -0.017 ± 0.0014 | -0.012 ± 0.0085 | -0.008 ± 0.0099 | 0.0085 ± 0.044 | 0.002 ± 0.0057 | -0.005 | 0.004 ± 0.0071 | 0.0015 ± 0.029 | -0.0075 ± 0.00071 | 0.034 | 0.0425 ± 0.011 | -0.006 ± 0.0085 | -0.0145 ± 0.005 | -0.04 ± 0.023 | 0.007 ± 0.016 | 0.002 ± 0.0057 | -0.001 ± 0.0014
11 | LPS:CCL2/MCP-1 | -0.0235 ± 0.00071 | 0.013 ± 0.025 | -0.0105 ± 0.00071 | -0.006 ± 0.0085 | 0.0015 ± 0.03 | 0.004 ± 0.0085 | -0.0155 ± 0.013 | -0.0015 ± 0.0021 | -0.0165 ± 0.011 | -0.041 ± 0.0085 | -0.0235 ± 0.033 | -0.0655 ± 0.077 | 0.0095 ± 0.0021 | 0.037 ± 0.018 | 0.056 ± 0.037 | 0.0055 ± 0.012 | -0.009 ± 0.03 | 0.0135 ± 0.04
12 | BE3C:HLA-DR | -0.0235 ± 0.042 | -0.0275 ± 0.032 | -0.0025 ± 0.012 | -0.0115 ± 0.0021 | 0.012 ± 0.031 | -0.0075 ± 0.013 | 0.0035 ± 0.015 | 0.0095 ± 0.018 | 0.0005 ± 0.013 | -0.02 ± 0.014 | -0.0755 ± 0.032 | -0.406 ± 0.041 | -0.0135 ± 0.021 | -0.0175 ± 0.012 | -0.024 ± 0.0099 | -0.0155 ± 0.0092 | -0.017 ± 0.014 | -0.019 ± 0.024
13 | LPS:sTNF-alpha | 0.0115 ± 0.046 | 0.0395 ± 0.019 | 0.007 ± 0.028 | 0.005 ± 0.013 | -0.0005 ± 0.0078 | 0.003 ± 0.1 | 0.0345 ± 0.057 | 0.0395 ± 0.03 | -0.0135 ± 0.0078 | -0.0375 ± 0.059 | -0.162 ± 0.0085 | -0.42 ± 0.052 | -0.002 ± 0.0042 | 0 ± 0.0057 | 0.0015 ± 0.0092 | 0.0025 ± 0.012 | -0.009 ± 0.014 | -0.001 ± 0.0099
14 | BT:sTNF-alpha | -0.0085 ± 0.018 | 0.0935 ± 0.032 | 0.046 ± 0.05 | 0.0265 ± 0.21 | 0.0915 ± 0.12 | -0.0275 ± 0.04 | -0.149 ± 0.1 | -0.028 ± 0.03 | -0.018 ± 0.13 | 0.005 ± 0.067 | -0.0135 ± 0.0064 | 0.0075 ± 0.21 | -0.011 ± 0.031 | 0.0335 ± 0.07 | -0.021 ± 0.04 | 0.0165 ± 0.037 | 0.0085 ± 0.022 | 0.0215 ± 0.064
